These results are taken from patent US20060025394A1, “Estradiol-related compounds and methods of use as anti-tumor agents” (priority 2003, published 2006).

SMILES strings stand for the structures. Entries after “also recorded” stand apart in the source; their conditions may differ.

In one assay the target is T1, ER-β (Homo sapiens, UniProt Q92731).
T1 construct: purchased Pan Vera, Madison, Wis
Kind of assay: Estrogen receptor relative binding affinity assay, fluorescence polarization, ER-β. The procedure: (§1) All assays were carried out as per the manufacture's instructions with the following modifications.
In general terms: Polarisation of emitted light reports the rotation of a fluorescent probe.

The target in the next assay is T2, ER-α (Homo sapiens, UniProt P03372).
T2 construct: purchased Pan Vera, Madison, Wis
T2 sequence (P03372 1-595): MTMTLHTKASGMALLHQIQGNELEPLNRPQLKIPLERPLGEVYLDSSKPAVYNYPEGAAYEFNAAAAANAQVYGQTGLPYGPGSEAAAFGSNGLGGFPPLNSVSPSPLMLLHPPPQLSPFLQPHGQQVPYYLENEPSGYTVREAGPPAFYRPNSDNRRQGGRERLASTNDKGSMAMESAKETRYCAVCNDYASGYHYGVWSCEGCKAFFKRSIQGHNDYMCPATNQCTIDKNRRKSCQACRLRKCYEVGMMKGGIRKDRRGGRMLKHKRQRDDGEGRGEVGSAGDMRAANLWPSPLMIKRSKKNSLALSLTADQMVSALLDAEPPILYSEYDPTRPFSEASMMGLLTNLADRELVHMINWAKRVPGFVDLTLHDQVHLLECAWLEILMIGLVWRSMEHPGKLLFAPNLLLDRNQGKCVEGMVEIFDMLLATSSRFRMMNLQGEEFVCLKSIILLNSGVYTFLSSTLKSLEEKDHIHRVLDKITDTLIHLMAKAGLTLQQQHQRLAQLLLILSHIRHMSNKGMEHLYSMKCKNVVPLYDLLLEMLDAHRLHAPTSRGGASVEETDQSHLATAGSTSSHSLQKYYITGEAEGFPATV
In words: Estrogen receptor relative binding affinity assay, fluorescence polarization, ER-α. How it is done: as §1

The test system of a further assay is DU145 cells. Kind of assay: Flow cytometry cell cycle analysis. The format is cell-based. Particulars: 16 nM. How it is done:
The cells were trypsinized for five minutes, scraped, washed in serum containing media, centrifuged at 300 rpm for 10 minutes, and fixed in ice-cold 70% ethanol for 24 hours at −20° C. The cells were again pelleted and resuspended in buffer containing nine parts 0.05M Na2HPO4 and one part 25 mM citric acid with 0.1% Triton X-100 (pH 7.8) for 2 hours. Cells were pelleted, resuspended in a buffer ([…], 0.1 N NaCl, 2 mM MgCl2, and 0.1% Triton X-100) containing 20 μg PI and 50 μg/ml RNAse (pH 6.8), and incubated in the dark at room temperature for 30 minutes. Cell cycle distribution and DNA content analysis were assayed according to standard methods with a FACS sorter, FACScan™ flow cytometer (Becton Dickinson, Mountain View, Calif.), and analyzed by the Cell Cycle Multi-Cycle system (Phoenix Flow System, San Diego, Calif.). Approximately 15,000 single events were collected, and cell-cycle distribution was determined using Modfit LT version 2 software (Verity House, Inc., Topsham, Me.). All analyses were carried out in quadruplicate.
For orientation: In flow cytometry, cells or beads pass a laser one at a time.

Assay [1] concerns DU145, PC3, and LNCaP cell lines. Kind of assay: MTS assay, values averaged or stated over the CaP cell lines. The format is cell-based. Particulars: apoptotic mechanism. The procedure: DU145, LNCaP, PC3, and MCF-7 cells were obtained from the American Type Culture Collection (Manassas, Va.). DU145, PC3, and MCF-7 cells were maintained in Dulbecco's modified Eagle's medium/F-12 supplemented with 5% heat inactivated Fetal Calf Serum and Penicillin/Streptomycin (Invitrogen Life Technologies, Carlsbad, Calif.). LNCaP cells were maintained in RPMI 1640 medium supplemented in the same fashion. Cells were cultured in 75 cm^2 flasks (Falcon, BD Biosciences, Bedford, Mass.) at 37° C. and 5% CO2. For the MTS assay (Example 3), five thousand cells were plated in each well of a 24 well plate (Falcon), were allowed to attach for a 48-hour period in the media described, and changed to a defined medium, (DMEM/F-12 or RPMI1640) supplemented with insulin (BD Biosciences). A 1000× solution of the compound of interest solubilized in DMSO (Sigma, Saint Louis, Mo.) was diluted in the defined media just prior to starting each experiment, and media was refreshed every 48 to 72 hours throughout the experiments.
. Upon completing five days of treatment, the medium in each well was exchanged for 400 μL of an MTS solution (3-(4,5-dimethylthiazol-2-yl)-5-(3-carboxymethoxyphenyl)-2-(4-sulfophenyl)-2H-tetrazolium, inner salt; O'Toole SA, 2003, Cancer Detect Prev., 2003;27(1):47-54) spiked into media as per the manufacture's instructions (Promega, Madison, Wis.) and incubated for 2 hours at 37° C. before reading the absorbance on the μQuant UV/VIS plate reader, in conjunction with KCjunior Software (Bio-Tek Instruments, Winooski, Vt.) set at 490 nm. All experiments were carried out in quadruplicate, control wells were treated with the carrier DMSO. E2, which is estradiol-17β (Steraloids®, Newport, R.I.) and resveratrol (Sigma) were used as controls. […]

Another assay deals with LNCaP. In words: MTS cell viability assay in LNCaP. The format is cell-based. How it is done:
(§2) DU145, LNCaP, PC3, and MCF-7 cells were obtained from the American Type Culture Collection (Manassas, Va.). DU145, PC3, and MCF-7 cells were maintained in Dulbecco's modified Eagle's medium/F-12 supplemented with 5% heat inactivated Fetal Calf Serum and Penicillin/Streptomycin (Invitrogen Life Technologies, Carlsbad, Calif.). LNCaP cells were maintained in RPMI 1640 medium supplemented in the same fashion. Cells were cultured in 75 cm^2 flasks (Falcon, BD Biosciences, Bedford, Mass.) at 37° C. and 5% CO2. […]
(§3) Cell viability assays were carried out with five logs of concentration between 0.1 nM and […] for APVE2, including controls in three prostate cancer cell lines (DU145, LNCaP, and PC3, and in a breast cancer cell line (MCF-7). Upon completing five days of treatment, the medium in each well was exchanged for 400 μL of an MTS solution (3-(4,5-dimethylthiazol-2-yl)-5-(3-carboxymethoxyphenyl)-2-(4-sulfophenyl)-2H-tetrazolium, inner salt; O'Toole SA, 2003, Cancer Detect Prev., 2003;27(1):47-54) spiked into media as per the manufacture's instructions (Promega, Madison, Wis.) and incubated for 2 hours at 37° C. before reading the absorbance on the μQuant UV/VIS plate reader, in conjunction with KCjunior Software (Bio-Tek Instruments, Winooski, Vt.) set at 490 nm. […] EC50 values were calculated with GraphPad Prism software (GraphPad Software Inc., San Diego, Calif.).
On the technique in general: Tetrazolium assays rely on reduction of a dye to a coloured formazan, in cell work by metabolically active cells.

In another assay the test system is MCF-7. In words: MTS cell viability assay in MCF-7. The format is cell-based. Conditions: MCF-7, data not shown. How it is done:
as §2, §3

Setting [2] is: fluorescence polarization, 25° C., 2 hours.
Setting [3] is: ratio of EC50 values as compared to E2.

T1 sequence (Q92731 whole entry): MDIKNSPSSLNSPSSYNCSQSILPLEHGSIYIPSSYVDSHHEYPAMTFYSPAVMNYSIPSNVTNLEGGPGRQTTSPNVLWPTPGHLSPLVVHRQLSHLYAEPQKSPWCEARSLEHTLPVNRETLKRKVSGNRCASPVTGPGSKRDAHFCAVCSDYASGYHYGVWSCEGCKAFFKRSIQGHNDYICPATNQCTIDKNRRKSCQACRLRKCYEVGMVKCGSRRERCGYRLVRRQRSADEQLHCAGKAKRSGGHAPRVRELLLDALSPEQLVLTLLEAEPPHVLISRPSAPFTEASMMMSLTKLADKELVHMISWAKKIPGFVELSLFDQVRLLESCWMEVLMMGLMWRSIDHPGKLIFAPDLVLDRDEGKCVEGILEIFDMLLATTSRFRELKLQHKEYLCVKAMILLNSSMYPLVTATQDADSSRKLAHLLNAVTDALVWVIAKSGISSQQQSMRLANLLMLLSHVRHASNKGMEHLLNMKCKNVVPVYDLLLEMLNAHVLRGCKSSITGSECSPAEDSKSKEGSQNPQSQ

A word on the EC50: it is the concentration at which the effect is half-maximal. For the compound `C[C@]12CC[C@@H]3c4ccc(O)cc4CC[C@H]3[C@@H]1CC[C@@]2(O)/C=C\c1ccc(N)cc1` [APVE2, 17α-20Z-21-[(4-amino)phenyl]-19-norpregna-1,3,5(10),20-tetraene-3,17β-diol], the “preference for ER-β over ER-α” value on ER-β came to 7 fold. On ER-β (setting [2]), this compound registered a half-maximal effective concentration (EC50) of 250 nM. The “ER-β % RBA” value on ER-β (setting [3]) stood at 6.2%. The ER-α/ER-β at ER-β (ratio of RBAs) is recorded as 0.14. Moreover, it took 365 nM to reach a half-maximal effect on ER-α (setting [2]) (EC50). At ER-α (setting [3]), the “ER-α % RBA” value came to 0.87%. Also, the “increase in G2/M accumulation” value with DU145 cells is given as “over 4 fold”. Also, the “G1/G0 phase, compared to non-treated controls” value with DU145 cells (day 2-3) stood at 135%. In the assay on DU145 cells (day 3), the “G2/M, compared to non-treated controls” value is “no change” and the “S phase, decrease to, compared to non-treated controls” value is reported as 32%. In the assay with DU145 cells (day 4), the “G1/G0, decrease to, over non-treated controls” value came out at 48% and the “S phase, over non-treated controls” value is 73%. The “G2/M arrest, over non-treated controls” value with DU145 cells (day 4-5) was determined as 420%. The “loss of G1” value in the assay with DU145 cells (four to five days) is “over 48%”. Moreover, the “loss in S phase” value in the assay on DU145 cells (second and third day) is listed as “up to 68%”. Further, in assay [1], the “level of cell death” value is above 90%. In addition, the “decrease in cell number” value with LNCaP (5 days of treatment at 1 μM) was 69±2.3%. For the same compound, in the assay on LNCaP (Homo sapiens, 120 h, five day treatment, read-out: EC50 (cell death, MTS)), the EC50 was 1.4 nM. In the assay on MCF-7, the cell death entry is “did induce cell death” and the “proliferation / growth response” value is recorded as “no growth response; also recorded: did not cause an increase in proliferation”.
